{"source": "patent US20230032216A1", "about": "“INTERLEUKIN-4-INDUCED GENE 1 (IL4I1) AND RESPECTIVE METABOLITES AS BIOMARKERS FOR CANCER” (DEUTSCHES KREBSFORSCHUNGSZENTRUM STIFTUNG DES ÖFFENTLICHEN …, priority 2019, published 2023)", "key": {"[1]": {"tested_on": "U-87MG cells", "test": "Wound healing (migration) assay with Ctrl and IL4I1-expressing glioblastoma cells", "format": "cell-based, human", "settings": "ectopically IL4I1-expressing U-87MG cells, 1 μM SR1, FIG. 3C", "protocol": "Cells were seeded in 2-well cell culture inserts (ibidi, 80209) placed in 24-well plates. For U-87MG cells, as well as Ctrl and IL4I1-expressing U-87MG cells, 3×10^4 cells in 100 μL medium per well of cell culture insert were seeded. In the case of Ctrl and IL4I1-expressing U-251MG cells, 4×10^4 in 100 μL medium per well of cell culture insert were seeded. Cells were incubated for 16 h, inserts were removed and 1 mL of complete DMEM medium was added to each well of the plate. Cell migration was monitored by taking pictures at indicated time points, until gap (500 μm+/−100 μm) was covered by cells. In the case where U-87MG cells were treated with I3P or SR1, treatments were applied at the time of seeding the cells in the 2 well cell culture inserts. In addition, after 16 h incubation time and insert removal, 1 mL of complete DMEM medium containing treatments was applied to cells and kept throughout the assay. For each independent experiment, 3 pictures per well were taken and each condition was carried out at least in 3 wells. Pictures were taken with an ECLIPSE Ti-E/B inverted microscope (Nikon) with the 4×objective and using the NIS Elements software version 4.13.04. Pictures were analyzed with TScratch software version 1.0 (Geback et al., 2009). Cell migration was assessed by calculating the percentage of covered area for each time point normalized to the area at the 0 h time point."}, "[2]": {"tested_on": "advanced melanoma", "test": "RNA-seq of advanced melanoma patients before and on nivolumab treatment (Riaz et al., GSE91061)", "format": "in vivo, human", "description": "RNA-seq datasets-Raw counts and metadata were downloaded from GEO using GEOquery (Davis and Meltzer, 2007). The harmonized HT-Seq counts and Fragments Per Kilobase of transcript per Million mapped reads (FPKM) of TCGA datasets were downloaded using TCGAbiolinks (Colaprico et al., 2016) from Genomic Data Commons (GDC) (https://gdc.cancer.gov/), and only patients with the identifier “primary tumor” were retained, with the exception of melanoma that was split into datasets for primary and metastatic cohorts. The FPKM values were converted to transcripts per million (TPMs) (Li and Dewey, 2011). TPM data of normal tissues were downloaded from the Genotype-Tissue Expression (GTEx) dataset (https://gtexportal.org/home/). All TPM values were log 2 transformed. Raw counts of the Riaz et al. […] (Riaz et al., 2017) advanced melanoma dataset were downloaded from https://github.com/riazn/bms038_analysis, and based on principle component analysis one outlier patient pair was removed (Pt-84). RNA-seq counts were saved as DGELists (Robinson et al., 2010). Genes with less than 10 counts were filtered followed by trimmed mean of M values (TMM) normalization (Robinson and Oshlack, 2010) and variance modeling using voom (Law et al., 2014)."}, "[3]": {"test": "Conversion of I3P to KynA under cell-free conditions", "format": "physicochemical"}, "[4]": {"tested_on": "advanced melanoma", "settings": "epacadostat in combination with the anti-PD-1 mAb pembrolizumab, advanced melanoma (Long et al., 2019); cited from earlier work"}, "[5]": {"settings": "advanced melanoma patients, before vs after nivolumab, FIG. 8C, re-analysis of Riaz et al. 2017"}}, "data": [{"compound": "CC(C)n1cnc2c(NCCc3ccc(O)cc3)nc(-c3csc4ccccc34)nc21", "note": "[SR1]", "values": [{"measurement": "IL4I1-mediated motility of AHR-proficient cells", "setting": "[1]", "result": "reversed"}]}, {"compound": "nivolumab: anti-PD-1 monoclonal antibody (mAb) nivolumab", "values": [{"measurement": "AHR activation (AHR signature)", "setting": "[2]; advanced melanoma patients after nivolumab, FIG. 8D", "result": "resulted in AHR activation"}, {"measurement": "Hallmark of cancer gene set enrichment", "setting": "[2]; advanced melanoma patients before vs on Nivolumab therapy, FIG. 10", "result": "strong upregulation of inflammatory hallmark gene signatures"}, {"measurement": "IDO1 expression", "setting": "[2]; [5]", "result": "induced"}, {"measurement": "IL4I1 expression", "setting": "[2]; [5]", "result": "induced"}, {"measurement": "IL4I1 expression", "setting": "[2]; advanced melanoma patients, before vs after nivolumab, FIG. 8C, re-analysis of Riaz et al. 2017, listed as Nivolumab", "result": "higher expression of IL4I1"}, {"measurement": "IL4I1 expression in ipilimumab-naïve patients", "setting": "[2]; ipilimumab-naïve advanced melanoma patients, response to nivolumab, FIG. 8E", "result": "significant IL4I1 increase"}]}, {"compound": "O=C(O)C(=O)Cc1c[nH]c2ccccc12", "note": "[I3P, Indole-3-pyruvic acid]", "values": [{"measurement": "Formation of KynA from I3P", "setting": "[3]; data not shown", "result": "formed spontaneously"}, {"measurement": "Formation of KynA from I3P in the presence of H2O2", "setting": "[3]; with H2O2, data not shown", "result": "enhanced"}]}, {"compound": "NS(=O)(=O)NCCNc1nonc1C(=NO)Nc1ccc(F)c(Br)c1", "note": "[epacadostat]", "values": [{"measurement": "Clinical benefit in phase III trial", "setting": "[4]", "result": "failed"}]}]}
